Data reported in patent US8168631B2, “3-(4-fluorophenyl)-3-hydroxy-2-amino-propionic acid amides and related compounds having analgesic activity” (Allergan, Inc., priority 2008, dated 2012).
Where a name gives a salt, the structure may show the parent alone.

Tested on: nerve-ligation induced pain (rat model of spinal nerve ligation, SNL)
Assay: Neuropathic pain model (Chung model): rat spinal nerve ligation, mechanical allodynia by Von Frey hairs
Format: in vivo
Conditions: for reversed pain in the Chung model: 1 mg/kg, time not given
Protocol: [drawing 23] and all racemic mixtures of the two optical isomers are also included. Analgesic Activity in the Neuropathic Pain Model (the Chung Model)
Several of the compounds disclosed herein were tested in the rat model of spinal nerve ligation (SNL) which involves a traumatic partial nerve injury, involving tight ligation of the L5 and L6 spinal nerves (Kim and Chung, 1992). Pain, including mechanical allodynia and thermal hyperalgesia, persists in the absence of ongoing tissue injury for more than 2 months following the surgery. The ability of the drug to alleviate the mechanical allodynia was assessed using a series of Von Frey hairs applied to the mid-plantar area of the ipsilateral hind paw before and after drug administration. The paw withdrawal threshold was determined using a standard up-down testing method (Dixon, 1980) and expressed relative to the paw withdrawal threshold in uninjured rats.
• Kim S H, Chung J M. An experimental model for peripheral neuropathy produced by segmental spinal nerve ligation in the rat, Pain 1992; 50 (3): 355-63. • Dixon W J. Efficient analysis of experimental observations. Annu Rev Pharmacol Toxicol 1980; 20: 441-62.

| SMILES | reversed pain in the Chung model | Percent pain reversal at time in min (dose 0.3 mg/kg, 15 min) | Percent pain reversal at time in min (dose 0.3 mg/kg, 30 min) | Percent pain reversal at time in min (dose 0.3 mg/kg, 60 min) | Percent pain reversal at time in min (dose 1 mg/kg, 15 min) | Percent pain reversal at time in min (dose 1 mg/kg, 30 min) | Percent pain reversal at time in min (dose 1 mg/kg, 60 min) | Percent pain reversal at time in min (dose 0.1 mg/kg, 15 min) | Percent pain reversal at time in min (dose 0.1 mg/kg, 30 min) | Percent pain reversal at time in min (dose 0.1 mg/kg, 60 min) |
| --- | --- | --- | --- | --- | --- | --- | --- | --- | --- | --- |
| N[C@@H](C(=O)N1CCCC1)[C@@H](O)c1ccc(F)cc1 (racemic) [Compound 1, (±)-threo-2-Amino-3-(4-fluorophenyl)-3-hydroxy-1-(pyrrolidin-1-yl)propan-1-one hydrochloride] | 64% | 17% | 29% | 52% | 28% | 52% | 64% | – | – | – |
| N[C@@H](C(=O)N1CCCC1)[C@@H](O)c1ccc(F)cc1 [Compound 3, (−)-threo-2-Amino-3-(4-fluorophenyl)-3-hydroxy-1-(pyrrolidin-1-yl)propan-1-one hydrochloride] | 86% | 26.7% | 53.6% | 75.5% | 57.2% | 73.5% | 86.2% | 1.2% | 20.2% | 43.2% |
| N[C@@H](C(=O)N1CCCC1)[C@@H](O)c1ccc(Cl)cc1 (racemic) [reference compound] | – | 4.8% | 7.5% | 8.6% | – | – | – | – | – | – |
| N[C@@H](C(=O)N1CCCC1)[C@@H](O)c1ccc(I)cc1 (racemic) [reference compound] | – | 4.3% | 5.8% | 7.3% | – | – | – | – | – | – |
